Assay results from patent US5178877A, “Encapsulated renin inhibitor composition” (priority 1991, dated 1993).

Experiments:
[1] = Oral bioavailability studies in fasted dogs; settings: dog, in vivo
Procedure: The following compositions comprising compound I were prepared and the bioavailability of each composition was determined in fasted dogs. Dogs (beagle dogs, mixed sexes, weighing about 10 kg) were fasted for at least 12 hours before dosing. Food was returned after the last blood sample was collected (24 hours). Water was available at all times. A dose equivalent to 50 or 100 milligrams of compound I was administered by mouth to each dog, followed with either 20 or 50 ml of water, respectively, through a feeding tube. […] Blood samples of 3 ml volume were anti-coagulated with EDTA. The plasma was separated by centrifugation and frozen until analyzed. Blood plasma concentrations of compound I were determined by HPLC. Bioavailability was calculated as follows: % Bioavailability=[(AUC)oral×D/(AUC)intravenous]×100. (AUC)oral and (AUC)intravenous are the areas under the curve for the plasma concentration-time profiles following oral and intravenous administration, respectively. D is a correlation factor for the difference between intravenous administration (3 mg/kg) and oral administration (about 10 mg/kg).

salt depleted dogs = experiment: Blood pressure lowering in salt depleted dogs; type: in vivo, dog; settings: after oral or intravenous administration

- times more bioavailable as soft elastic gelatin encapsulated solution compared to standard solid capsule or tablet compositions [1]: 2.1-5.2 times
SMILES: CC(C)C[C@H](O)[C@H](O)[C@H](CC1CCCCC1)NC(=O)[C@H](Cc1cscn1)NC(=O)[C@H](Cc1ccccc1)CS(=O)(=O)N1CCN(C)CC1 [compound I, (2S)-2-Benzyl-3-(1-methyl-piperazin-4-ylsulfonyl)propionyl-(L)-(4-Thiazolyl)Ala Amide of (2S, 3R, 4S)-2-Amino-1-cyclohexyl-3,4-dihydroxy-6-methylheptane]
- blood pressure (salt depleted dogs): reduces blood pressure
